Laboratory results from PMC4501059, “Responding to the challenge of untreatable gonorrhea: ETX0914, a first-in-class agent with a distinct mechanism-of-action against bacterial Type II topoisomerases” (Scientific Reports, 2015).
Values after ≈ are worked out from the molar mass of the structure shown. Like-named read-outs stand apart in the source and are kept apart here.

Legend:
Staphylococcus aureus = details: cited from earlier work
Neisseria gonorrhoeae = details: cited from earlier work
mouse lymphoma cells = assay: in vitro mouse micronucleus aberration assay (MMA); type: cell-based
Description: (§1) In vitro toxicology. Experiments for assessing micronuclei in mouse lymphoma cells^19 myeloid cytotoxicity^20 and erythroid cytotoxicity^21 were performed as described previously.

hERG = hERG (Homo sapiens, UniProt Q12809); assay: In vitro ion channel function; details: hERG IC50, K^+ rectifying current/QT interval
Iks/Kv7.1 = Iks/Kv7.1 (Homo sapiens, UniProt P51787); assay: In vitro ion channel function; type: cell-based; details: Iks/Kv7.1 IC50, Slowly activating K^+ delayed rectifier
Description: (§2) Supplement srep11827-s1.doc, table 3 | column: Table S2: In vitro ion channel function IC50 (µM)

hNav1.5 = hNav1.5 (Homo sapiens, UniProt Q14524); assay: In vitro ion channel function; type: cell-based; details: hNav1.5 IC50, Initiation of cardiac action potential/QRS interval
Description: as §2

Kv1.5 = Kv1.5 (Homo sapiens, UniProt P22460); assay: In vitro ion channel function; type: cell-based; details: Ikr/Kv1.5 IC50, Rapidly activating K^+ delayed rectifier
Description: as §2

hCav1.2 = hCav1.2 (Homo sapiens, UniProt Q13936); assay: In vitro ion channel function; type: cell-based; details: hCav1.2 IC50, Ca^2+ entry into excitable cells
Description: as §2

Ito/Kv4.3 = molecular target: T1, Ito/Kv4.3 (Homo sapiens, UniProt Q9UK17); assay: In vitro ion channel function; type: cell-based; details: Ito/Kv4.3 IC50, Transient outward K^+ early repolarization
T1 sequence (Q9UK17 1-655): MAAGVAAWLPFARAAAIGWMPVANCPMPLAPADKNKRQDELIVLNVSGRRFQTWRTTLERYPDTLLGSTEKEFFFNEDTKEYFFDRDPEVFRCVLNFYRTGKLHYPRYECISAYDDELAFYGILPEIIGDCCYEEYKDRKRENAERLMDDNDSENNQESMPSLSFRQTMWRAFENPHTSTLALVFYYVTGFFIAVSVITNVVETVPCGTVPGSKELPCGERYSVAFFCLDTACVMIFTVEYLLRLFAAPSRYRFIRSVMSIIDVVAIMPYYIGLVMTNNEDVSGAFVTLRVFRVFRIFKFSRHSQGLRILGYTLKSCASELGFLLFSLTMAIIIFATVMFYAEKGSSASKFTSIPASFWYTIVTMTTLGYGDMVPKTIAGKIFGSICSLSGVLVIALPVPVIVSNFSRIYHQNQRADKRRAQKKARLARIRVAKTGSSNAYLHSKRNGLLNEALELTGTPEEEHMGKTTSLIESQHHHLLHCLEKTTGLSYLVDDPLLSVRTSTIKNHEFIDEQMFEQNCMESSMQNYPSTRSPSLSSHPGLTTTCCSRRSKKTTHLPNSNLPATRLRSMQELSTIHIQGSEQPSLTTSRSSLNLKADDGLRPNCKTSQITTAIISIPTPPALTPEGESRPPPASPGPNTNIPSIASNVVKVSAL
Description: as §2

[1] = tested on: S. pneumoniae ARC2205 (ERQR); assay: MIC (CLSI broth microdilution); type: cell-based
[2] = Human plasma protein binding (PPB); details: plasma
Dog pharmacokinetics = type: in vivo, Beagle dog; details: beagle, dog, plasma
Description: AZD0914 was analyzed in mouse, rat, dog, monkey plasma using a qualified method which was later validated for human plasma analysis. The validated human method is described below and is representative of the approach taken in other species. AZD0914 was determined in human plasma prepared with K2EDTA as an anticoagulant. AZD0914 and an internal standard (^13C2, ^15N2 AZD0914) were extracted from plasma with tert- butyl methyl ether. After evaporating to dryness under a stream of nitrogen, the residue was reconstituted and quantitated by reverse phase HPLC-MS/MS against a standard curve from 1.00 to 5000 ng/ml. Separation was achieved using a gradient which went from 55% to 85% methanol:acetonitrile (1:1) containing 0.2% formic acid as mobile phase B and 0.2% formic acid in water as mobile phase A at a flow rate of 0.60 ml/min through a Phenomonex Gemini C18 column (50 x 2.0 mm column, […]) heated using a Shimadzu CTO-20AC set to 40 °C. AZD0914 was detected in multiple reaction monitoring (MRM) mode by positive ion electrospray ionization using a Sciex API5500 (Toronto, Canada) mass spectrometer. The ion spray voltage was set to 5500 V and turboionspray temperature was 650 °C. AZD0914 was quantitated using the MRM transition 488.2 → 348.2 using a collision energy of 29 eV. The internal standard, (^13C2, ^15N2 AZD0914), was monitored using identical conditions except for the MRM transition of 492.2 → 348.2.

S. pneumoniae ATCC49619 = assay: MIC (CLSI broth microdilution); type: cell-based
[3] = tested on: N. gonorrhoeae ARC4676 (QR); type: cell-based
S. aureus ARC516 = assay: MIC (CLSI broth microdilution); type: cell-based
N. gonorrhoeae ATCC49226 = assay: MIC (CLSI agar dilution); type: cell-based
[4] = tested on: S. aureus AP607004 (MRQR); assay: MIC (CLSI broth microdilution); type: cell-based
[5] = comparative haematology analysis in the rat, oral dosing; details: for AUC: in vivo, po
[6] = tested on: mammalian erythroid cell lines; assay: erythroid cytotoxicity (growth inhibition); type: cell-based; details: read-out: Erythroid IC50
Description: as §1

[7] = tested on: mammalian myeloid cell lines; assay: myeloid cytotoxicity (growth inhibition); type: cell-based; details: read-out: Myeloid IC50
Description: as §1

[8] = tested on: resistant isolates of S. aureus, S. pneumoniae and N. gonorrhoeae; type: cell-based; details: for susceptibility of spontaneous ETX0914 resistant mutants: S. aureus and N. gonorrhoeae GyrB mutants
[9] = Table 2, first entry of the cell (ciprofloxacin: 250 mg UID line)

Chain of hNav1.5 (Q14524 whole entry): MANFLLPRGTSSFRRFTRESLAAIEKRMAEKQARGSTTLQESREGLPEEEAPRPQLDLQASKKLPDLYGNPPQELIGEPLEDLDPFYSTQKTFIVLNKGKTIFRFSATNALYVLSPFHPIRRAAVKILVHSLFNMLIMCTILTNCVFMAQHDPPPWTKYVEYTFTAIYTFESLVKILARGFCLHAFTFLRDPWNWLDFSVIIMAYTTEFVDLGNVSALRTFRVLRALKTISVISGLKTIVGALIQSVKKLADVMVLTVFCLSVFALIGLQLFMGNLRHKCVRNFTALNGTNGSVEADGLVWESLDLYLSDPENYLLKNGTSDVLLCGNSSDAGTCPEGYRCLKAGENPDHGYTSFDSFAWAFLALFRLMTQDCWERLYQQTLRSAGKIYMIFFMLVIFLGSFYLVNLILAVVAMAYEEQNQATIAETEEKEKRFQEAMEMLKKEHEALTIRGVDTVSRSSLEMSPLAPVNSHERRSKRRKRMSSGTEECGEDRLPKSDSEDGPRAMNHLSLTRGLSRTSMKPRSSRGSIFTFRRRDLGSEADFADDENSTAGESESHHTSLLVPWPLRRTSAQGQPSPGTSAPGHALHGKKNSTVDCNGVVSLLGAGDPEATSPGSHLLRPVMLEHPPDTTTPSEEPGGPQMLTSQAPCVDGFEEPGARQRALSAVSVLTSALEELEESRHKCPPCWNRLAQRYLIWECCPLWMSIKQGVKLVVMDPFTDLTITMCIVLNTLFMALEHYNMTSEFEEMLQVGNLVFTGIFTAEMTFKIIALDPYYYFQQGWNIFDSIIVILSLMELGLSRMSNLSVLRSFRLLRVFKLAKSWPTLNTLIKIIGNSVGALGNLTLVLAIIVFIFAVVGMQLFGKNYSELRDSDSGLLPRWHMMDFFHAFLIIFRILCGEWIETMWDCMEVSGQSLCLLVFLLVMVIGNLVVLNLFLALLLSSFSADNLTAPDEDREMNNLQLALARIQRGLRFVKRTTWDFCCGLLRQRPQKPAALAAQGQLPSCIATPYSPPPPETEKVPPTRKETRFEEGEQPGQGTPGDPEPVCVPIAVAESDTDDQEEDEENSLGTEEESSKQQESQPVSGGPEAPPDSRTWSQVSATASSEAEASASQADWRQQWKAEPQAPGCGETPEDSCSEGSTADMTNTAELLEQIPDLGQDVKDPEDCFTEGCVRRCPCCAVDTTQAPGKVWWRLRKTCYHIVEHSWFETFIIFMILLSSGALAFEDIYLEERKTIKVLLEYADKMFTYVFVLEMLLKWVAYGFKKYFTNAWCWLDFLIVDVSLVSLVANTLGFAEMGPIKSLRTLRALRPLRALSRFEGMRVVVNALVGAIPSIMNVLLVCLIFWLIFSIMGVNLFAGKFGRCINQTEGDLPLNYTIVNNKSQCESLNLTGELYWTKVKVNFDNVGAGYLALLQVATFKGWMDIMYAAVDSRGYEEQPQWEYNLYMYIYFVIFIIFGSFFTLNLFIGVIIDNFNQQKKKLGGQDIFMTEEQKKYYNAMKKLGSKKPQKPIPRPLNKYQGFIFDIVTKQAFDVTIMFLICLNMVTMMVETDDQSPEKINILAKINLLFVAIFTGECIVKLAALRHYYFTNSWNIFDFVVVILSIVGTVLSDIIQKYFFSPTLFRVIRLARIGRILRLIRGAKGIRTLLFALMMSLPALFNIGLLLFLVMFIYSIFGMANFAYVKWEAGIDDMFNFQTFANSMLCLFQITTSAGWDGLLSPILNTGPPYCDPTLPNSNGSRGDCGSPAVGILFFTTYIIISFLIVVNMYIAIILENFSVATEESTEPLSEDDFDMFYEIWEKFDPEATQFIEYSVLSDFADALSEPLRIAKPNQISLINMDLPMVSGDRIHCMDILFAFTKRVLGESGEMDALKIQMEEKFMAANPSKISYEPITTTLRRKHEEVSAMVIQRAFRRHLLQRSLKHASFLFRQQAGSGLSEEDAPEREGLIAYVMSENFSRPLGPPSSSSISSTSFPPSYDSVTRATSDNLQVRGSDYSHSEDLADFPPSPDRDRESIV
Chain of hERG (Q12809 whole entry): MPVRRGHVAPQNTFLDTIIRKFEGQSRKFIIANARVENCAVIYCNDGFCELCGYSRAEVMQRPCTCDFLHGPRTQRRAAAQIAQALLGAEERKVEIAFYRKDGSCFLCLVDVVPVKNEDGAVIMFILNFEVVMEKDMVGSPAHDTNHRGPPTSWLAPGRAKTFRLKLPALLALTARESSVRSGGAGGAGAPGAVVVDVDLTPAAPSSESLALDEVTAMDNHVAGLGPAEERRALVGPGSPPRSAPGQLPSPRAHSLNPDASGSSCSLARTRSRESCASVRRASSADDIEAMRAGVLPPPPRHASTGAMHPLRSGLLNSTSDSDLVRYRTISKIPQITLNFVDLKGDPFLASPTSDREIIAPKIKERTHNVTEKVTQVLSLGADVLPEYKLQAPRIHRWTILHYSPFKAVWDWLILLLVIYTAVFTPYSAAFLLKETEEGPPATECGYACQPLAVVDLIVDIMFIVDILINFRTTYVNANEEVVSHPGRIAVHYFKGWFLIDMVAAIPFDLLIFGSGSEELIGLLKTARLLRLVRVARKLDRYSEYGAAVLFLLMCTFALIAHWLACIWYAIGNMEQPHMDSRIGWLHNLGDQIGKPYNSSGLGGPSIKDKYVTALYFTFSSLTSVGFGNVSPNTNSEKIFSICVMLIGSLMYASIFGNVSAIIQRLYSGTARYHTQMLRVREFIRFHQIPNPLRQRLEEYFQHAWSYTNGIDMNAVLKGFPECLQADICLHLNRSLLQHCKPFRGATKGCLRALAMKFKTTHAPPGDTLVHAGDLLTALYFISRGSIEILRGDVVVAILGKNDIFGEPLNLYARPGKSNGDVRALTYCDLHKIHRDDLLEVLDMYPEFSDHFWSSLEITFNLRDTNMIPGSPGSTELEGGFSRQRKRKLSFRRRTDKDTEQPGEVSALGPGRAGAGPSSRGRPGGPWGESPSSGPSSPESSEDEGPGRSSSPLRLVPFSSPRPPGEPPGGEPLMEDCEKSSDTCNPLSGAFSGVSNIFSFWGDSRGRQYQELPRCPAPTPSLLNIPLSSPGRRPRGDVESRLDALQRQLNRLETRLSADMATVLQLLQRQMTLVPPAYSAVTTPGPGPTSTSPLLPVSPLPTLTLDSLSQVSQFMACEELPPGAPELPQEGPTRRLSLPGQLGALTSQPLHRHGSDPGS
Chain of Iks/Kv7.1 (P51787 whole entry): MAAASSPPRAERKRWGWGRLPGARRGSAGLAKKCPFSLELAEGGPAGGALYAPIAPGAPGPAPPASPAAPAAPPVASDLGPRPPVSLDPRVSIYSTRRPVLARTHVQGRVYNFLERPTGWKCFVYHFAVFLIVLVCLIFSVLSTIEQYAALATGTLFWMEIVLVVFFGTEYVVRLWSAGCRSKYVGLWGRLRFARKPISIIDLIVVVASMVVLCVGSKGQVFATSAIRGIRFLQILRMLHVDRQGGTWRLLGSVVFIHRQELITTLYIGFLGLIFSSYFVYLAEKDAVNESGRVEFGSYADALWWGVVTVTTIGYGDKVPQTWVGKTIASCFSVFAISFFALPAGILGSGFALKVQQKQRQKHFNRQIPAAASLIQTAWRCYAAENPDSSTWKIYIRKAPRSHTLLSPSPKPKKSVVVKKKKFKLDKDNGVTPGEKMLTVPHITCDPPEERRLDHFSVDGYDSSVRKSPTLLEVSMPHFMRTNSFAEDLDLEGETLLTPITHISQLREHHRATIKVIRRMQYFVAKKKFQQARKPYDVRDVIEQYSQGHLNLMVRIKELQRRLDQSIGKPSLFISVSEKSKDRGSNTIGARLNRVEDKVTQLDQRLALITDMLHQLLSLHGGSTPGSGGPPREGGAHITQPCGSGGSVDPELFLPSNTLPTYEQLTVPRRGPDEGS
Chain of Kv1.5 (P22460 whole entry): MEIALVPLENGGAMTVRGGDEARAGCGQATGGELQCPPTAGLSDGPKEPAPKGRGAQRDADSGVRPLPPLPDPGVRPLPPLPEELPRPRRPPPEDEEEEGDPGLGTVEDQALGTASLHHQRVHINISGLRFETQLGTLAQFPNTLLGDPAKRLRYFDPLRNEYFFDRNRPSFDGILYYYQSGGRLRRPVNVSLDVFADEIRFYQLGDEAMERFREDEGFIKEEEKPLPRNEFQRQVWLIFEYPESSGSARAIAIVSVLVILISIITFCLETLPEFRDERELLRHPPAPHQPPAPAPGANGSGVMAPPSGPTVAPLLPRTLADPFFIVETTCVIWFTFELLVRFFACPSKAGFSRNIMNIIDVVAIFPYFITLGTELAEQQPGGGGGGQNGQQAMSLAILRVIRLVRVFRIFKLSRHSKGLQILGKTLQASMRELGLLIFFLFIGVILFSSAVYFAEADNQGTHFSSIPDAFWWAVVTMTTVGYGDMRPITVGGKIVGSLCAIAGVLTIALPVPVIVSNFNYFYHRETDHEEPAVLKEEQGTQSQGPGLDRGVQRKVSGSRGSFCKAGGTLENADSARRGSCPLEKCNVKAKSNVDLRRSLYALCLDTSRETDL

Structure (SMILES)	IC50 (hERG) [µM]	IC50 (Iks/Kv7.1) [µM]	IC50 (hNav1.5) [µM]	IC50 (hCav1.2) [µM]	IC50 (Ito/Kv4.3) [µM]	MIC: S. pneumoniae ARC2205 (ERQR) [1] [µg/mL]	solubility (physchem) [µM]	fraction unbound [2]	Dog F (Dog pharmacokinetics) [%]	clearance (Dog pharmacokinetics) [mL/min/kg]	MIC: S. pneumoniae ATCC49619 (S. pneumoniae ATCC49619) [µg/mL]	MIC: N. gonorrhoeae ARC4676 (QR) [3] [µg/mL]	Micronucleus NOEL (mouse lymphoma cells; in vitro) [µM]	MIC: S. aureus ARC516 (S. aureus ARC516) [µg/mL]	MIC: N. gonorrhoeae ATCC49226 (N. gonorrhoeae ATCC49226) [µg/mL]	MIC: S. aureus AP607004 (MRQR) [4] [µg/mL]	IC50 [6] [µM]	IC50 [7] [µM]	other results
CO/N=C(\C(=O)N[C@@H]1C(=O)N2C(C(=O)O)=C(CSc3nc(=O)c(=O)[nH]n3C)CS[C@H]12)c1csc(N)n1 [Ceftriaxone, reference compound]	–	–	–	–	–	–	–	–	–	–	–	–	–	–	–	–	–	–	MIC90 for S. aureus (Staphylococcus aureus): 8 µg/mL
O=C(O)c1cn(C2CC2)c2cc(N3CCNCC3)c(F)cc2c1=O [Ciprofloxacin 2, Ciprofloxacin, reference compound]	–	–	–	–	–	–	–	–	–	–	–	–	–	–	–	–	–	–	MIC90, gonococcal infection (N. gonorrhoeae) (Neisseria gonorrhoeae; [9]): 0.06 to 0.12 µg/mL; MIC90, gonococcal infection (N. gonorrhoeae) (Neisseria gonorrhoeae; second entry of the cell, 500 mg UID line): 0.25 to 0.5 µg/mL; Micronucleus NOEL (mouse lymphoma cells; mouse): 200 µM
C[C@@H]1CN2c3c(cc4c(N5C(=O)OC[C@@H]5C)noc4c3F)CC3(C(=O)NC(=O)NC3=O)[C@H]2[C@H](C)O1 [Compound 1]	232	> 316	> 316	> 100	> 292	–	–	–	–	–	–	–	–	–	–	–	–	–	IC50 (Kv1.5): > 100 µM
Cc1noc2c(F)c3c(cc12)CC1(C(=O)NC(=O)NC1=O)[C@H]1[C@H](C)O[C@H](C)CN31 [Compound 5, (2R,4S,4aS)-11-Fluoro-2,4,8-trimethyl-2,4,4a,6-tetrahydro-1H,1'H-spiro[isoxazolo[4,5-g][1,4]oxazino[4,3-a]quinoline-5,5'-pyrimidine]-2',4',6'(3'H)-trione]	> 100	> 100	> 80	> 100	> 100	2.0 (≈ 4.97 µM)	210 (≈ 84.5 µg/mL)	0.094	47	5.3	1.0 (≈ 2.49 µM)	0.5 (≈ 1.24 µM)	50	0.25 (≈ 0.621 µM)	0.5 (≈ 1.24 µM)	0.5 (≈ 1.24 µM)	–	–	concentration giving a measurable genotoxicity signal in the in vitro MMA (mouse lymphoma cells; mouse): 100 µM; IC50 (Kv1.5): > 100 µM
C[C@@H]1CN2c3c(cc4c(-n5cncn5)noc4c3F)CC3(C(=O)NC(=O)NC3=O)[C@H]2[C@H](C)O1 [Compound 6]	237	> 333	> 333	> 100	224	0.125 (≈ 0.274 µM)	73 (≈ 33.2 µg/mL)	0.13	99	4.5	0.125 (≈ 0.274 µM)	0.125 (≈ 0.274 µM)	3	0.031 (≈ 0.0681 µM)	0.25 (≈ 0.549 µM)	0.063 (≈ 0.138 µM)	–	–	haematologic effects ([5]; 100 mg/kg/day for 14 days in the rat): decreases in reticulocytes, neutrophils, lymphocytes and monocytes; AUC ([5]; rat, 100 mg/kg): 950 µM·h; AUC ([5]; rat, 250 mg/kg): 1700 µM·h; reticulocytes count ([5]; rat, 6 at the higher dose (250 mg/kg, 5 d), linezolid 6 d): significant suppression; neutrophil count ([5]; rat, both doses of 6, linezolid): showing suppression; lymphocyte counts ([5]; rat, higher dose of 6): leading to suppression; white blood cell count ([5]; rat, higher dose of 6): leading to suppression
C[C@@H]1CN2c3c(cc4c(C(=O)NCC(F)(F)F)noc4c3F)CC3(C(=O)NC(=O)NC3=O)[C@H]2[C@H](C)O1 [Compound 7]	91	> 100	> 100	> 100	> 90	0.125 (≈ 0.243 µM)	77 (≈ 39.5 µg/mL)	0.13	74	5.8	0.125 (≈ 0.243 µM)	0.25 (≈ 0.487 µM)	100	0.125 (≈ 0.243 µM)	0.25 (≈ 0.487 µM)	0.25 (≈ 0.487 µM)	95	43	IC50 (Kv1.5): > 100 µM
Cc1nnc(-c2noc3c(F)c4c(cc23)CC2(C(=O)NC(=O)NC2=O)[C@H]2[C@H](C)O[C@H](C)CN42)o1 [Compound 8]	–	–	–	–	–	0.25 (≈ 0.531 µM)	1350 (≈ 635 µg/mL)	0.13	32	4.7	0.125 (≈ 0.266 µM)	1 (≈ 2.13 µM)	> 200	0.25 (≈ 0.531 µM)	1 (≈ 2.13 µM)	0.25 (≈ 0.531 µM)	> 100	76	–
CO/N=C1\CN(c2nc3c(cc2F)c(=O)c(C(=O)O)cn3C2CC2)CC1CN (stereo not drawn) [Gemifloxacin, reference compound]	–	–	–	–	–	–	–	–	–	–	–	–	3	–	–	–	7	10	concentration giving a measurable genotoxicity signal in the in vitro MMA (mouse lymphoma cells): 6 µM
C[C@H]1COc2c(N3CCN(C)CC3)c(F)cc3c(=O)c(C(=O)O)cn1c23 [Levofloxacin, reference compound]	–	–	–	–	–	16 (≈ 44.3 µM)	–	–	–	–	0.5 (≈ 1.38 µM)	–	–	0.25 (≈ 0.692 µM)	–	8 (≈ 22.1 µM)	88	79	–
N#Cc1ccc2ccc(=O)n(CCN3CC[C@H](NCc4cc5c(cn4)OCCO5)[C@H](F)C3)c2c1 [NBTI 3, 1-[2-[(3R,4S)-4-(2,3-Dihydro-[1,4]dioxino[2,3-c]pyridin-7-ylmethylamino)-3-fluoro-1-piperidyl]ethyl]-2-oxo-quinoline-7-carbonitrile]	–	–	–	–	–	–	–	–	–	–	–	–	–	–	–	–	–	–	susceptibility of fluoroquinolone resistant isolate ARC4680 ([8]; N. gonorrhoeae ARC4680): reduced susceptibility; susceptibility of spontaneous ETX0914 resistant mutants [8]: fully susceptible
CO[C@@H]1[C@@H](OC(N)=O)[C@@H](O)[C@H](Oc2ccc3c(O)c(NC(=O)c4ccc(O)c(CC=C(C)C)c4)c(=O)oc3c2C)OC1(C)C [Novobiocin 4, Novobiocin]	–	–	–	–	–	–	–	–	–	–	–	–	–	–	–	–	–	–	susceptibility of fluoroquinolone resistant clinical isolates ([8]; S. aureus ARC2381, S. pneumoniae ARC2480, N. gonorrhoeae ARC4672, ARC4680, ARC4676): fully susceptible; susceptibility of spontaneous ETX0914 resistant mutants [8]: fully susceptible
CC1COc2c(N3CCN(C)CC3)c(F)cc3c(=O)c(C(=O)O)cn1c23 (stereo not drawn) [Ofloxacin, reference compound]	–	–	–	–	–	–	–	–	–	–	–	–	–	–	–	–	–	–	MIC90, skin infection (S. aureus) (Staphylococcus aureus; Table 2): 2 µg/mL (≈ 5.53 µM); MIC90, gonococcal infection (N. gonorrhoeae) (Neisseria gonorrhoeae; [9]): 0.25 to 0.5 µg/mL
